Data published in ChEMBL document CHEMBL1201862, “PubChem BioAssay data set” (2004).
Calls of active or inactive are those of the source.

What was measured:
[1] = tested on: Streptococcus sp. 'group A'; test: growth inhibition of control SK(-) GAS strain, dose response, counter-screen for streptokinase expression inhibitor project, luminescence, kanamycin, BacTiterGlo, confirmation (AID 1900); format: functional, organism-based
[2] = target: T1, Streptokinase A (Streptococcus pyogenes serotype M1, UniProt P10520); test: S. pyogenes streptokinase expression inhibitors, potency, dose response, plasminogen activation absorbance, OD405 (AID 1914); format: functional, Streptococcus pyogenes M1 GAS;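 also: secreted streptokinase activity via plasminogen activation per viability signal from cell pellet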
T1 sequence (P10520 whole entry): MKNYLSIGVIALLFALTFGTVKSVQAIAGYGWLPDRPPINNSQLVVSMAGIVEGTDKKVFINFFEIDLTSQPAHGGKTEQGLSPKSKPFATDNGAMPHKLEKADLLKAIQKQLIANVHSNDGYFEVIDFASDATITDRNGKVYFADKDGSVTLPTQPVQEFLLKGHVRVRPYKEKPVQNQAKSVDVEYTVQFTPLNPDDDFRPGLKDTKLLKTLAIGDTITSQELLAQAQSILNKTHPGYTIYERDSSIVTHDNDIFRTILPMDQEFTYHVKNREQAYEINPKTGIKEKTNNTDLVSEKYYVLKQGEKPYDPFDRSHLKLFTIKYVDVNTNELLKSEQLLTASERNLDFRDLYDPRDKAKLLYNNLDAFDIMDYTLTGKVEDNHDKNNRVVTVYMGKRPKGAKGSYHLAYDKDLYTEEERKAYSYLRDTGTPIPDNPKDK

[3] = tested on: Streptococcus; test: Group A Streptococcus viability loss, dose response, counter-screen for streptokinase expression inhibitor project, luminescence, BacTiterGlo (AID 1915); format: functional, organism-based;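 also: potency for reduction of bacterial viability or growth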
[4] = cells; format: functional
[5] = Luminescence Cell-Based Dose Confirmation HTS to Identify Activators of 5'UTR Stem-Loop Driven Alpha-Synuclein mRNA Translation in H4 Neuroglioblastoma Cells. [Related pubchem assays: 1829 (Project Summary), 1814 (Primary HTS)]; format: functional
[6] = Luminescence Cell-Based Dose Response HTS to Identify Activators of Luciferase Translation or Activity in H4 […] Cells. [Related pubchem assays: 1829 (Project Summary), 1814 (Primary HTS)]; format: functional
[7] = tested on: H4; test: Luminescence Cell-Based Dose Response HTS to Identify Activators of 5'UTR Stem-Loop Driven Prion Protein mRNA Translation in H4 Neuroglioblastoma Cells. [Related pubchem assays: 1829 (Project Summary), 1814 (Primary HTS)]; format: functional; conditions: Homo sapiens
[8] = target: Cytochrome P450 2C19 (Homo sapiens, UniProt P33261); test: Cytochrome panel assay with activity outcomes. Panel member name: p450-cyp2c19 Compounds with AC50 equal or less than 10 uM are considered active; format: functional; conditions: read-out: AC50
Sequence of Cytochrome P450 2C19 (P33261 whole entry, the tested form may be a part): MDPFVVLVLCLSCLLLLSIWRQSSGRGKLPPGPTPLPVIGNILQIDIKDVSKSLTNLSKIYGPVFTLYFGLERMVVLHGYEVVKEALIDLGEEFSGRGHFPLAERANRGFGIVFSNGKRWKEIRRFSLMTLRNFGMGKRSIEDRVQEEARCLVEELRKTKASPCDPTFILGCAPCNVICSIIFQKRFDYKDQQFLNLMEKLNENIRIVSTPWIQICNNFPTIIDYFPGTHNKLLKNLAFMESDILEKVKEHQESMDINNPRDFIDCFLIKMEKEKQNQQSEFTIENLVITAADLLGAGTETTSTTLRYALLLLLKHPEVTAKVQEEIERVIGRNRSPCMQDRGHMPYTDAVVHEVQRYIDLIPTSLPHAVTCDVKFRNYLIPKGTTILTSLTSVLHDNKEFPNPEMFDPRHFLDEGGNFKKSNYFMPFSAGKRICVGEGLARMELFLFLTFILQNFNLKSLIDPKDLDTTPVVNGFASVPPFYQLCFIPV

[9] = target: T2, Carboxy-terminal domain RNA polymerase II polypeptide A small phosphatase 1 (Homo sapiens, UniProt Q9GZU7); test: inhibitors of CTDSP1, concentration-response testing, biochemical assay, absorbance-based, actives from ultra-high-throughput screening (AID 540297); format: functional
T2 sequence (Q9GZU7 whole entry): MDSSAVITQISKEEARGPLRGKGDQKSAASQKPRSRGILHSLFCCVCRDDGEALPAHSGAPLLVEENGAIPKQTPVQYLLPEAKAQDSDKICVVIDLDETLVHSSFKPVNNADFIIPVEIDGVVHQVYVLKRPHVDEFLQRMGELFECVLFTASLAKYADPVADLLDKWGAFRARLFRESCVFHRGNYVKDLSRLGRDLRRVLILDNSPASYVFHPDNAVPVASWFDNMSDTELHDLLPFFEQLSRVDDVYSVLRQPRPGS

[10] = target: T3, Protein skinhead-1 (Caenorhabditis elegans, UniProt P34707); format: functional
T3 sequence (P34707 whole entry): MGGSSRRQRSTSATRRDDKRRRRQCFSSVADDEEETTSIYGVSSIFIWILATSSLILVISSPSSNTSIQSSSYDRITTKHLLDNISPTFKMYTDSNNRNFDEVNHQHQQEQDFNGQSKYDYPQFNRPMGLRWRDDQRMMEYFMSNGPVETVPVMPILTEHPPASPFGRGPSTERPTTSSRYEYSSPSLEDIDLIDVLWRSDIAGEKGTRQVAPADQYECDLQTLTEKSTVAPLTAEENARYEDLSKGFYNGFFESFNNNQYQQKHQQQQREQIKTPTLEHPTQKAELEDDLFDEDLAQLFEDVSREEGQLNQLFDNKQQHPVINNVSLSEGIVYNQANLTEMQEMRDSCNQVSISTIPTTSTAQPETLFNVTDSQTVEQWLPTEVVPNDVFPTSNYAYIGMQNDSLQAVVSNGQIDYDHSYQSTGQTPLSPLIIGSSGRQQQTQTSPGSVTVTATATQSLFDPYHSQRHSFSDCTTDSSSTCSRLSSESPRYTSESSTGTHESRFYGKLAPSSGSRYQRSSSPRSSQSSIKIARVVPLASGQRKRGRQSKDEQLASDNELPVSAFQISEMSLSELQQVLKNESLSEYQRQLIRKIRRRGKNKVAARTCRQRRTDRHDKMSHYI

[11] = Shn3 3'UTR reporter inhibitors, dose response, cell-based, Clone20 osteoblasts, firefly luciferase, cherry-picked (AID 624132); format: functional;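 also: firefly luciferase luminescence from reporter carrying the Shn3 3'UTR in osteoblasts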
[12] = control 3'UTR Renilla luciferase suppression, dose response, counter-screen for Shn3 inhibitor project, cell-based, Clone20-Shn3RL, cherry-picked (AID 624133); format: functional
[13] = intracellular Trypanosoma cruzi inhibitors in host cells – cell-based, plate reader, cherry-pick samples, set 3, dose response (AID 651818); format: functional;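 also: compounds incubated with infected cells for about four days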
[14] = NIH-3T3 fibroblast cytotoxicity, dose response, cytotoxicity control, cell-based, fluorescence, Alamar Blue, secondary assay (AID 2327); format: functional;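 also: NIH-3T3 mouse fibroblasts cultured with fluconazole at 8 µg/mL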
[15] = C. albicans growth with fluconazole, confirmation, fluorescence, retest (AID 2467); format: functional, cell-based

**Q.** What does the source list for `CCOc1ccccc1C(=O)OCC(=O)Nc1nnc(-c2ccccc2)o1`?
**A.** EC50 [1]: 4.56 µM (active); EC50 [2]: > 150 µM (not active); EC50 [3]: 14.6 µM (active); IC50 [4]: 19.2 µM (active)

**Q.** Which EC50 [5] does the source give for `COc1cc(/C=C2\C=CC(=O)O2)cc(OC)c1` here?
**A.** 13.3 µM (active)

**Q.** And the EC50 [6]?
**A.** 12.2 µM (active)

**Q.** What about the EC50 [7] of the same compound?
**A.** > 120 µM (not active)

**Q.** Which results are given for `Cc1ccc2cc(C)c3nnc(SCC(=O)NCc4ccco4)n3c2c1`?
**A.** AC50 [8]: 14.1 µM (inconclusive); IC50 [9]: 8.54 µM (active)

**Q.** Which IC50 [9] does the source give for `CCOc1ccc(CNC(=O)Cn2nc(C)c3c(C)n(-c4ccc(C)cc4)nc3c2=O)cc1` here?
**A.** 6.46 µM (active)

**Q.** For `O=C(Cn1cnc2sc(-c3ccccc3)cc2c1=O)NCc1ccccc1`, which IC50 [9] is on record?
**A.** 7.5 µM (active)

**Q.** With `C=C(C)CCOC(=O)C(CC(=O)O)NCc1ccco1` (stereo unspecified) as the compound, how does the IC50 [9] read?
**A.** 4.85 µM (active)

**Q.** For `O=C(NC(=S)N1CCN(C/C=C/c2ccccc2)CC1)c1ccco1`, which IC50 [4] is on record?
**A.** 32.2 µM (active)

**Q.** Which results are given for `O=C(C1=NNCC1c1ccccc1)C1OC1c1ccccc1` (stereo unspecified)?
**A.** EC50 [5]: 20.8 µM (active); EC50 [6]: 13.5 µM (active); EC50 [7]: > 120 µM (not active)

**Q.** Which IC50 [4] does the source give for `Sc1c2c(nc3ncnn13)CCC2` here?
**A.** 16.6 µM (active)

**Q.** Which IC50 [4] does the source give for `CCCOC(=O)c1ccc(-c2ccc(C=O)o2)cc1` here?
**A.** 9.73 µM (active)

**Q.** Which EC50 [5] does the source give for `O=C1C(Cl)=C(N2CCOCC2)C(=O)N1CCc1ccccc1` here?
**A.** 0.656 µM (active)

**Q.** And the EC50 [6]?
**A.** 1.56 µM (active)

**Q.** What about the EC50 [7] of the same compound?
**A.** > 120 µM (not active)

**Q.** Which EC50 [5] does the source give for `C=CCN1C(=O)C(=O)N(Cc2nc3ccccc3s2)C1=O` here?
**A.** 10.7 µM (active)

**Q.** What about the EC50 [6] of the same compound?
**A.** 36.3 µM (active)

**Q.** And the EC50 [7]?
**A.** 0.283 µM (active)

**Q.** What about the IC50 [10] of the same compound?
**A.** > 100 µM (inactive)

**Q.** With `COc1ccc(NN=Nc2ccc([N+](=O)[O-])cc2)cc1` as the compound, how does the EC50 [5] read?
**A.** 1.01 µM (active)

**Q.** What about the EC50 [6] of the same compound?
**A.** 0.485 µM (active)

**Q.** And the EC50 [7]?
**A.** 64.4 µM (active)

**Q.** For `C=CCNC(=O)c1cc2c(=O)n3ccccc3nc2s1`, which EC50 [5] is on record?
**A.** 1.08 µM (active)

**Q.** What about the EC50 [6] of the same compound?
**A.** 0.166 µM (active)

**Q.** And the IC50 [10]?
**A.** > 100 µM (inactive)

**Q.** For `COc1cc(Cl)c(C)cc1NC(=O)CSc1sc2c(O)cc(=O)[nH]c2c1C#N`, which IC50 [9] is on record?
**A.** 2.46 µM (active)

**Q.** Which AC50 [11] does the source give for `O=C(C1=C[C@@H](C2CC2)C[C@@H](OCCCCO)O1)N1CCN(Cc2ccccc2)CC1` here?
**A.** > 70 µM (inactive)

**Q.** And the AC50 [12]?
**A.** > 70 µM (inactive)

**Q.** With `NC(=O)c1ccc(NC(=O)COC(=O)c2cc3c(s2)CCC3)cc1` as the compound, how does the IC50 [9] read?
**A.** 4.91 µM (active)

**Q.** With `C[C@H]1CN([C@@H](C)CO)C(=O)Cc2cc(NC(=O)Nc3ccc4c(c3)OCO4)ccc2O[C@H]1CN(C)Cc1ccc(-c2ccccc2)cc1` as the compound, how does the AC50 [13] read?
**A.** 6.07 µM (active)

**Q.** Which AC50 [13] does the source give for `C[C@@H]1CCCCO[C@H](CN(C)Cc2ccc(C(=O)Nc3ccccc3N)cc2)[C@@H](C)CN([C@H](C)CO)C(=O)c2cc(NS(=O)(=O)c3ccc(Cl)cc3)ccc2O1` here?
**A.** 1.11 µM (active)

**Q.** For `C[C@@H]1CCCCO[C@H](CN(C)C(=O)Nc2ccc(C(F)(F)F)cc2)[C@@H](C)CN([C@H](C)CO)C(=O)c2cc(NC(=O)NC3CCCCC3)ccc2O1`, which AC50 [13] is on record?
**A.** 2.45 µM (active)

**Q.** For `C[C@@H]1CN([C@@H](C)CO)C(=O)c2cccc(NC(=O)CCCCCC(=O)Nc3ccccc3N)c2O[C@H]1CN(C)Cc1ccc(Oc2ccccc2)cc1`, which AC50 [13] is on record?
**A.** 2.21 µM (active)

**Q.** With `C[C@H](CO)N1C[C@H](C)[C@@H](CN(C)Cc2ccc3c(c2)OCO3)Oc2c(NC(=O)CCCCCC(=O)Nc3ccccc3N)cccc2C1=O` as the compound, how does the AC50 [13] read?
**A.** 2.21 µM (active)

**Q.** For `Oc1oc(-c2ccccc2Br)nc1/C=N/c1ccccn1`, which EC50 [5] is on record?
**A.** 59.1 µM (active)

**Q.** What about the EC50 [6] of the same compound?
**A.** 13 µM (active)

**Q.** And the EC50 [7]?
**A.** > 120 µM (not active)

**Q.** For `CC1=C/C(=N\NC(=S)NCCc2ccccc2)CC(C)(C)C1`, which EC50 [14] is on record?
**A.** > 150 µM (inactive)

**Q.** What about the EC50 [5] of the same compound?
**A.** 12.1 µM (active)

**Q.** What about the EC50 [6] of the same compound?
**A.** 14.2 µM (active)

**Q.** And the EC50 [1]?
**A.** 11.4 µM (active)

**Q.** What about the EC50 [7] of the same compound?
**A.** > 120 µM (not active)

**Q.** What about the EC50 [2] of the same compound?
**A.** 64 µM (active)

**Q.** What about the EC50 [15] of the same compound?
**A.** > 38 µM (not active)

**Q.** What about the EC50 [3] of the same compound?
**A.** > 150 µM (not active)

**Q.** Which EC50 [5] does the source give for `Cc1nn(-c2ccccc2)c(Cl)c1/C=N/NC(=O)c1ccc(NS(=O)(=O)c2cccs2)cc1` here?
**A.** 17.3 µM (active)

**Q.** And the EC50 [6]?
**A.** 7.45 µM (active)

**Q.** And the EC50 [1]?
**A.** 2.1 µM (active)

**Q.** What about the EC50 [7] of the same compound?
**A.** 9.52 µM (active)

**Q.** And the EC50 [3]?
**A.** 5.04 µM (active)
